Publication PMC7714403 (JCI Insight, 2020)
Where two headings read alike, the source gives them in different places.

Key:
Test in all cases: KiNativ, MOLM13 live cells
Assay type in all cases: cell-based
p38a = p38a (Homo sapiens, UniProt Q16539); conditions: 100 nM, 2 hours
Procedure: (§1) Samples were analyzed by KiNativ in situ kinase profiling by ActivX Biosciences.

PKR = PKR (Homo sapiens, UniProt P19525); conditions: 100 nM, 2 hours
Procedure: as §1

LATS1 = molecular target: T1, LATS1 (Homo sapiens, UniProt O95835); conditions: MOLM-13, 2 h, 100 nM
T1 sequence (O95835 1-1130): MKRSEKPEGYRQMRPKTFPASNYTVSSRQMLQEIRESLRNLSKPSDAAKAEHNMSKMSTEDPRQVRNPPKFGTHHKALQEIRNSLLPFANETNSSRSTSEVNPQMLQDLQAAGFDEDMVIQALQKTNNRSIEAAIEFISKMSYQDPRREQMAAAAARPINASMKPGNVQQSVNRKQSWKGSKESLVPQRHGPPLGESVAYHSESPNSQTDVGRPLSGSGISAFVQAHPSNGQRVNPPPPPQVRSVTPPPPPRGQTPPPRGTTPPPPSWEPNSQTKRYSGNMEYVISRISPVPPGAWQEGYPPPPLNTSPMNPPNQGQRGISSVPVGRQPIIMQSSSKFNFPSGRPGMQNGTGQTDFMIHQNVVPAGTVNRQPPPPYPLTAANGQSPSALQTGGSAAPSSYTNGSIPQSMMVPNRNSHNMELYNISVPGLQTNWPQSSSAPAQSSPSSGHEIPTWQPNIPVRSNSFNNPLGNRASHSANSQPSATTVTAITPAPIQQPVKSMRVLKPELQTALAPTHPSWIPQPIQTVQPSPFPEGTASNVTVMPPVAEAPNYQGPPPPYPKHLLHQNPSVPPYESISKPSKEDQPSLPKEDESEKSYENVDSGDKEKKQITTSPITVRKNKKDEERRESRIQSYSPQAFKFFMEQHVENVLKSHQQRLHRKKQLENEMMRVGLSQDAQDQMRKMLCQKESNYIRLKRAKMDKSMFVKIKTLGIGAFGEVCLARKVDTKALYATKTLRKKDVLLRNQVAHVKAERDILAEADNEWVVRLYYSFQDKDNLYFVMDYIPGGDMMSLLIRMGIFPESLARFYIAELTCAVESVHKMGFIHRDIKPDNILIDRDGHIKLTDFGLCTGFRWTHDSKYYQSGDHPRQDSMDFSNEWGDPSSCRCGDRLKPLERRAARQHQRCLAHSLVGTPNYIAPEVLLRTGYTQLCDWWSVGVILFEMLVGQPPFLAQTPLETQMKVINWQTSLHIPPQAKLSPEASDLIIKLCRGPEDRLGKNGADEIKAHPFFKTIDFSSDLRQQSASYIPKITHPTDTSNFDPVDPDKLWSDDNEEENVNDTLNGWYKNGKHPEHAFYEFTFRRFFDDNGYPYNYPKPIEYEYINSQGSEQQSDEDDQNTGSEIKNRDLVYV
Procedure: as §1

RSKL1 = RSKL1 (Homo sapiens, UniProt Q96S38); conditions: MOLM-13; 100 nM, 2 hours; ATP; read-out: Inhibition vs DMSO
Procedure: as §1

GCK = molecular target: T2, GCK (Homo sapiens, UniProt Q12851); conditions: MOLM-13; 100 nM, 2 hours; Lys2; read-out: Inhibition vs DMSO
T2 sequence (Q12851 1-820): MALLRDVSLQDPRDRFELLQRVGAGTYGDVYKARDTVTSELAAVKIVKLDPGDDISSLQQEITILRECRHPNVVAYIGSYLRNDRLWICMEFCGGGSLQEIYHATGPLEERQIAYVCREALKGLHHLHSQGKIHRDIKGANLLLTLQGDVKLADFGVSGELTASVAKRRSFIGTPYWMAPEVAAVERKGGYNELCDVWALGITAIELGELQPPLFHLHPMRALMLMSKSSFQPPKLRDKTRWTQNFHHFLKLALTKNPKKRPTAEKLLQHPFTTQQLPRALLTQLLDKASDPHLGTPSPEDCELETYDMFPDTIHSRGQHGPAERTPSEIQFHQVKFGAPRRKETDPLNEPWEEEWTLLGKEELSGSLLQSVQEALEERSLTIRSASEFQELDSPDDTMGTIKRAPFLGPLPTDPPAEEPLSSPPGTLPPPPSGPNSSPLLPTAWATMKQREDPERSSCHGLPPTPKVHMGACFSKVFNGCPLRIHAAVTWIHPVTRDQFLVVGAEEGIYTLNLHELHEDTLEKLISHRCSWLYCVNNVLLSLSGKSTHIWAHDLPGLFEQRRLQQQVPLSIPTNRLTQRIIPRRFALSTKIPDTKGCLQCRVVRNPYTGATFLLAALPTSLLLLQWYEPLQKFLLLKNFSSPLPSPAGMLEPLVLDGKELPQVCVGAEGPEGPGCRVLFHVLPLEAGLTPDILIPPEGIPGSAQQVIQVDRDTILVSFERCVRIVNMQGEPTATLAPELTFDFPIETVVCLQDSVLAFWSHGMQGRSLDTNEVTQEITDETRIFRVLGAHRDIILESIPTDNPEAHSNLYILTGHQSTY
Procedure: as §1

NEK7 = NEK7 (Homo sapiens, UniProt Q8TDX7); conditions: MOLM-13; 100 nM, 2 hours; Lys1; read-out: Inhibition vs DMSO
Procedure: as §1

TBK1 = TBK1 (Homo sapiens, UniProt Q9UHD2); conditions: MOLM-13; 100 nM, 2 hours; Lys1; read-out: Inhibition vs DMSO
Procedure: as §1

MAP4K5 = MAP4K5 (Homo sapiens, UniProt Q9Y4K4); conditions: MOLM-13, 2 h, 100 nM
Procedure: as §1

p38b = p38b (Homo sapiens, UniProt Q15759); conditions: MOLM-13; 100 nM, 2 hours; Other; read-out: Inhibition vs DMSO
Procedure: as §1

FGR = FGR (Homo sapiens, UniProt P09769); conditions: MOLM-13; 100 nM, 2 hours; Activation Loop; read-out: Inhibition vs DMSO
Procedure: as §1

MAP3K1 = MAP3K1 (Homo sapiens, UniProt Q13233); conditions: MOLM-13; 100 nM, 2 hours; Lys2; read-out: Inhibition vs DMSO
Procedure: as §1

Erk1 = Erk1 (Homo sapiens, UniProt P27361); conditions: MOLM-13; 100 nM, 2 hours; Lys2; read-out: Inhibition vs DMSO
Procedure: as §1

IKKe = IKKe (Homo sapiens, UniProt Q14164); conditions: MOLM-13; 100 nM, 2 hours; Lys1; read-out: Inhibition vs DMSO
Procedure: as §1

[1] = Lys1, read-out: Inhibition vs DMSO
[2] = Lys2, read-out: Inhibition vs DMSO

Chain of PKR (P19525 whole entry): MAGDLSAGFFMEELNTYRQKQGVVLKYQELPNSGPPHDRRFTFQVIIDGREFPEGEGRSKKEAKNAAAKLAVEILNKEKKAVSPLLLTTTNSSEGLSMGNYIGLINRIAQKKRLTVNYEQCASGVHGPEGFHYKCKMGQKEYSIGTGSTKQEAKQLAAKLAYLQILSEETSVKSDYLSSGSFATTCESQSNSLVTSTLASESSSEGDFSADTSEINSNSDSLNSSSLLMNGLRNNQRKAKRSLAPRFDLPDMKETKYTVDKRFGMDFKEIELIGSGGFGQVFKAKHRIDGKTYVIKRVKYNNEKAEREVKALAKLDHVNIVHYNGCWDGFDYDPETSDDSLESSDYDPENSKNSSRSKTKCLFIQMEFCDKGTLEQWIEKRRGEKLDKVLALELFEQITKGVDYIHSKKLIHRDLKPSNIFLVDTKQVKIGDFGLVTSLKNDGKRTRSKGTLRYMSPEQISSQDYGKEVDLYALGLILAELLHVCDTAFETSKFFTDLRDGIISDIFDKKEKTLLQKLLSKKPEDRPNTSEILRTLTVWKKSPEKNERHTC
Chain of p38a (Q16539 whole entry): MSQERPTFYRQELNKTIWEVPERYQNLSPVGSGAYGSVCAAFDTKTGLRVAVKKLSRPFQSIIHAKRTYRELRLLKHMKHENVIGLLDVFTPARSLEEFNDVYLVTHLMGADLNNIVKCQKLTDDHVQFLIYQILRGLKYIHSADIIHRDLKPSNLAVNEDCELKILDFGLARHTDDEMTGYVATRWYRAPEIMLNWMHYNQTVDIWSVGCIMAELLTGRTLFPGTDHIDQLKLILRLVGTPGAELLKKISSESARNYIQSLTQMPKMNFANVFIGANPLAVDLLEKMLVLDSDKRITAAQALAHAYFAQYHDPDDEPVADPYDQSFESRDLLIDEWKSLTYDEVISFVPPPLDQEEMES
Chain of MAP4K5 (Q9Y4K4 whole entry): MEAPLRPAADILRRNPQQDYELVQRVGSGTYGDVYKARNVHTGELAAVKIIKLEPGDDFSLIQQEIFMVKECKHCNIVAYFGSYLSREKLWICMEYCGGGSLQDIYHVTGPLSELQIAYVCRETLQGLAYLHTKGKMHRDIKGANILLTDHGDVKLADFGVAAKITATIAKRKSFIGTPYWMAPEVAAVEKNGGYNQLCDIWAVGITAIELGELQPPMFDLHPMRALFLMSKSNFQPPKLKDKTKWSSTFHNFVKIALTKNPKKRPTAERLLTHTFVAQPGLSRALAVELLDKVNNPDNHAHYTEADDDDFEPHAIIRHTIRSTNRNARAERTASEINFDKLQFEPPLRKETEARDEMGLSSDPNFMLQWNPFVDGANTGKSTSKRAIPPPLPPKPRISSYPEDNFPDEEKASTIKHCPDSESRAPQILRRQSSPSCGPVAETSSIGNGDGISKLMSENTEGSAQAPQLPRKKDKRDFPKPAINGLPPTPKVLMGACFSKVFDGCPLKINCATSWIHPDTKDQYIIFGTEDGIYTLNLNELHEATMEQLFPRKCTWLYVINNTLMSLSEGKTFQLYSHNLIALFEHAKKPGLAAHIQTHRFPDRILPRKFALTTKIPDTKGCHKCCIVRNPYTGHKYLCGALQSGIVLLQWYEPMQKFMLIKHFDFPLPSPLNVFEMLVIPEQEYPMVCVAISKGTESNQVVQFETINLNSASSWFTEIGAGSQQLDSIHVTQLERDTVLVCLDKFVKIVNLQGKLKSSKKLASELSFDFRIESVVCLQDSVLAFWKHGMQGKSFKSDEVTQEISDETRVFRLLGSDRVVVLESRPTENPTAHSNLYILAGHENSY
Chain of TBK1 (Q9UHD2 whole entry): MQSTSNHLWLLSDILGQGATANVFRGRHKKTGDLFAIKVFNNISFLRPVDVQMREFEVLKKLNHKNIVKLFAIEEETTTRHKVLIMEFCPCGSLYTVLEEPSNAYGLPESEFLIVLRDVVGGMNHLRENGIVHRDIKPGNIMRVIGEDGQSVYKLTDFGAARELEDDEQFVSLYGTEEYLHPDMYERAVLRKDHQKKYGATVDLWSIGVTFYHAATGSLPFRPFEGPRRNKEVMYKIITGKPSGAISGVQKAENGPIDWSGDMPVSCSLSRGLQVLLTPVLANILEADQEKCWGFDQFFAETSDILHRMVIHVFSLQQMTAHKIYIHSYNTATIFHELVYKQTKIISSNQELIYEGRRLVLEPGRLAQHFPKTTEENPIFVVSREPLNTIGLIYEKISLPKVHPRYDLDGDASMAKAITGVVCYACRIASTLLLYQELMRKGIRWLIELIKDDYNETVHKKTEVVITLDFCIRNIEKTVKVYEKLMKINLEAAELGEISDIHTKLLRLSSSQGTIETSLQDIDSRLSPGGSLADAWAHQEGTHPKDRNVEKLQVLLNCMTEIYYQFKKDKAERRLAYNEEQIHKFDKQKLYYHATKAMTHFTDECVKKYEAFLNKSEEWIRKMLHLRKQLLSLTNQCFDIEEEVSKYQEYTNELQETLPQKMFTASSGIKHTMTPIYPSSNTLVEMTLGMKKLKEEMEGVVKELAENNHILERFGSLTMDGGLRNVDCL
Chain of p38b (Q15759 whole entry): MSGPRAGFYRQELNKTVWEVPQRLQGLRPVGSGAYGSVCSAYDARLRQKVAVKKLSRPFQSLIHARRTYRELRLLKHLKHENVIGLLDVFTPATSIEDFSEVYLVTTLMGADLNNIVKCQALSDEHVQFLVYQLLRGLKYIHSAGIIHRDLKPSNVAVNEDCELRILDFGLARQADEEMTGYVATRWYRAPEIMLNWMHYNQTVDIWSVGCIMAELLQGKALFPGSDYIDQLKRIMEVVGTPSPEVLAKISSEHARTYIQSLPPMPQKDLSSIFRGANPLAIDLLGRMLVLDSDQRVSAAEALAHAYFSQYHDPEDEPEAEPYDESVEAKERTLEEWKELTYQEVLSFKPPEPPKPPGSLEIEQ
Chain of MAP3K1 (Q13233 whole entry): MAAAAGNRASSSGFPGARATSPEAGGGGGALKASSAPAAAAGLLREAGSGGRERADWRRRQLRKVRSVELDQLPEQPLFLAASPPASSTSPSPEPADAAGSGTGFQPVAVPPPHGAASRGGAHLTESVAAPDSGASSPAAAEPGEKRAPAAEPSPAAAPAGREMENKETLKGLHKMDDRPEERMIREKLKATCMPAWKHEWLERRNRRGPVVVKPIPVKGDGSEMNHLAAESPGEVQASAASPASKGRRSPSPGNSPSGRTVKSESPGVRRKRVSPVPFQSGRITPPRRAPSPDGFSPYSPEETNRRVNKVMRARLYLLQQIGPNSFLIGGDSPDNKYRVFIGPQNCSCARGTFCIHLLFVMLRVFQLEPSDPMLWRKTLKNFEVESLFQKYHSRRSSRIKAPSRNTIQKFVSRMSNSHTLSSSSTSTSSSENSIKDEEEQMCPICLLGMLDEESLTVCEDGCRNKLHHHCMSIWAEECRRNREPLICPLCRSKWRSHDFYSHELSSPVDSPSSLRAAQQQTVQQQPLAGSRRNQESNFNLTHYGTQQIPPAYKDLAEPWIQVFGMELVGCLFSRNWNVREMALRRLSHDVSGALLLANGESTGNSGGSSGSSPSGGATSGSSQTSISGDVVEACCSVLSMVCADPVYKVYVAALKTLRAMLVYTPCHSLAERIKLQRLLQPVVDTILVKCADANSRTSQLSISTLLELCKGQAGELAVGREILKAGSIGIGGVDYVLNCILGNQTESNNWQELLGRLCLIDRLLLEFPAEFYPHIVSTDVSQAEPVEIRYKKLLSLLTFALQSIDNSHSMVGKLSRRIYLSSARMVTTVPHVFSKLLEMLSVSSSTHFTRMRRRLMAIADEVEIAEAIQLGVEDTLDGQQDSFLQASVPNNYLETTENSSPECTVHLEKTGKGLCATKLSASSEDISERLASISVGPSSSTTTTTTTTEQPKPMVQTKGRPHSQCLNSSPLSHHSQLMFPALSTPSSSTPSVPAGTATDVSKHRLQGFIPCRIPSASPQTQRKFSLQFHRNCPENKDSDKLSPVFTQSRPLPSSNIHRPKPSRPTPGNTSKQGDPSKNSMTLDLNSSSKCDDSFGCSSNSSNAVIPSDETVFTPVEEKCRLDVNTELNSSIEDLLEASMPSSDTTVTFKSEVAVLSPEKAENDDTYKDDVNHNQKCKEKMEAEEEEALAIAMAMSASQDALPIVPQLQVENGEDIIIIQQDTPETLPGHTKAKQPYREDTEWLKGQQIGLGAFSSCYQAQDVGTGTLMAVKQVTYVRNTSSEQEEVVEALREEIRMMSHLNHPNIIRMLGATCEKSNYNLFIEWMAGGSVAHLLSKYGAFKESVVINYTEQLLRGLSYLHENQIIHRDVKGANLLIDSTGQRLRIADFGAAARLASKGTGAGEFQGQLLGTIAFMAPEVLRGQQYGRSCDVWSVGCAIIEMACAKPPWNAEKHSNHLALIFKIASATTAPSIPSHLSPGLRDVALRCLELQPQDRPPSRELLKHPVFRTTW
Chain of FGR (P09769 whole entry): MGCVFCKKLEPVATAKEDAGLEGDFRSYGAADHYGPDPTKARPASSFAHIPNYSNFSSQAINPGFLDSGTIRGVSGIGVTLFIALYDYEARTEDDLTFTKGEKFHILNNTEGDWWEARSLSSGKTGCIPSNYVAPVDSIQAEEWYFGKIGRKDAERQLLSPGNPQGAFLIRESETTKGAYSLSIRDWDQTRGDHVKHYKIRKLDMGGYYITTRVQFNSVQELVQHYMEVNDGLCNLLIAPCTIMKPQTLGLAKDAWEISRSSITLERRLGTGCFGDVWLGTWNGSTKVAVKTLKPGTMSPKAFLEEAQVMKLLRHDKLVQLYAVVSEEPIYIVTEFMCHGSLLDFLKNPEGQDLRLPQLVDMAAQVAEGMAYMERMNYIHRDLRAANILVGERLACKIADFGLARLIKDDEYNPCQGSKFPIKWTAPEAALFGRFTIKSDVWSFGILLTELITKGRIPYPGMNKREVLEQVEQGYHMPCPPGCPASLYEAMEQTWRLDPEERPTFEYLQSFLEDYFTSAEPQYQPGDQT

CN1CCN(Cc2ccc(Nc3ncc(Cl)c(Nc4ccccc4S(=O)(=O)N(C)C)n3)cc2)CC1 [TP-0903] was tested, and the “Inhibition vs DMSO” value (p38a; Lys2) was -1.9%, the “Inhibition vs DMSO” value (p38a; Other) was 17.3% and the “Inhibition vs DMSO” value (PKR; Activation Loop) was -7.5%. The “Inhibition vs DMSO” value (PKR; Lys1) was -21.9%, the “Inhibition vs DMSO” value (PKR; Lys2) was -21.6% and the inhibition at 0.1 µM (LATS1; [1]) was 6.7%. For the same compound, the inhibition at 0.1 µM (LATS1; [2]) was -12.4%, the inhibition at 0.1 µM (RSKL1) was -8.3% and the inhibition at 0.1 µM (GCK) was 29.8%. It also gave an inhibition at 0.1 µM (NEK7) of -26%, an inhibition at 0.1 µM (TBK1) of 82.3% and an inhibition at 0.1 µM (MAP4K5; [1]) of 54.8%. The inhibition at 0.1 µM (MAP4K5; [2]) was 42.9%, the inhibition at 0.1 µM (p38b) was -5% and the inhibition at 0.1 µM (FGR) was -35.3%. The inhibition at 0.1 µM (MAP3K1) was 55.7%, the inhibition at 0.1 µM (Erk1) was -2.8% and the inhibition at 0.1 µM (IKKe) was 19.3%.
